Among the test systems are SF-268; EKVX; A549; DU-145; NCI/ADR-RES; HCC 2998; HCT-116; SR; SF-295; RPMI-8226; COLO 205; NCI-H460; SW-620; LOX IMVI; HCT-15; SK-OV-3; MCF7; NCI-H23; ACHN; 786-0.
Experiment in all cases: NCI anticancer screen, dose series, 48 h

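Test compounds were applied to cells in 96-well plates for 48 hours at 5 doses. GI50 = concentration required for 50% inhibition of growth.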 Active and inactive are the calls of the source. Rule as the data show it: active = GI50 up to about 1.1 µM and inactive = higher. A value given as a limit tells only on which side of the number the result lay.

In the case of `NS(=O)(=O)c1ccc(/N=N/c2ccc(O)cc2)cc1`, the GI50 is 53.6 µM (inactive) in the test on SF-268; 20.7 µM (inactive) in the test on EKVX; 28.3 µM (inactive) in the test on A549; 49.7 µM (inactive) with DU-145; 26.8 µM (inactive) in the test on NCI/ADR-RES; > 100 µM (inactive) with HCC 2998. The GI50 with HCT-116 was 37.3 µM (inactive); in the test with SR it was 7.13 µM (inactive); in the test on SF-295 it was 29.9 µM (inactive); with RPMI-8226, 26.5 µM (inactive); in the test on COLO 205, 46.3 µM (inactive); in the test on NCI-H460, 31.1 µM (inactive). Further, the GI50 in the test on SW-620 was 44.5 µM (inactive); in the test on LOX IMVI, 6.61 µM (inactive); in the test with HCT-15, 59.2 µM; with SK-OV-3, > 100 µM (inactive); with MCF7, 39.4 µM (inactive); with NCI-H23, 55.6 µM (inactive). Also, the results for the GI50 in the test with ACHN and with 786-0 were 31.8 µM (inactive) and > 100 µM (inactive), respectively.
`O=C1C(Br)=CC2(C=C1Br)CCNC1=C2C(=O)c2ncccc2C1=O`: the GI50 with SF-268 is 1.49 µM (inactive); with EKVX, 1.65 µM (inactive); with A549, 1.44 µM (inactive); in the test with DU-145 it was 1.68 µM (inactive); in the test with NCI/ADR-RES it was 1.82 µM (inactive); in the test with HCC 2998, 1.98 µM (inactive). The GI50 in the test on HCT-116 is 0.634 µM (active); in the test on SR it was 0.457 µM (active); in the test with SF-295, 1.37 µM (inactive); in the test with RPMI-8226, 0.621 µM (active); in the test on COLO 205, 1.89 µM (inactive); in the test on NCI-H460 it was 0.308 µM (active). Further, the GI50 is 1.1 µM (active) with SW-620; 0.313 µM (active) in the test on LOX IMVI; 0.618 µM in the test on HCT-15; 2.03 µM (inactive) with SK-OV-3; 1.14 µM (inactive) in the test with MCF7; 0.39 µM (active) in the test on NCI-H23. Besides, the values for the GI50 in the test with ACHN and in the test with 786-0 were 0.56 µM (active) and 1.47 µM (inactive), respectively.
Take `CC(C)(C)N1CSC(=S)N(Cc2ccco2)C1`: the GI50 is 3.93 µM (inactive) in the test on SF-268; 14.4 µM (inactive) in the test on EKVX; 5.4 µM (inactive) with A549; 3.85 µM (inactive) in the test on DU-145; 4.11 µM (inactive) in the test with NCI/ADR-RES; 4.02 µM (inactive) with HCC 2998. Besides, the GI50 in the test with HCT-116 was 3.81 µM (inactive); in the test on SR, 0.555 µM (active); in the test on SF-295, 15.8 µM (inactive); in the test on RPMI-8226, 0.177 µM (active); in the test with COLO 205 it was 3.65 µM (inactive); in the test on NCI-H460, 5.89 µM (inactive). The GI50 in the test on SW-620 was 1.21 µM (inactive); with LOX IMVI, 3.05 µM (inactive); in the test on HCT-15, 2.56 µM; in the test on SK-OV-3 it was 5.75 µM (inactive); in the test with MCF7 it was 0.52 µM (active); with NCI-H23 it was 2.37 µM (inactive). The GI50 is 3.27 µM (inactive) in the test with ACHN and 1.63 µM (inactive) with 786-0.
On to `O=C1/C(=C(/Br)I)c2ccccc2-c2ccccc21`, for which the GI50 is 14.1 µM (inactive) in the test on SF-268; 18 µM (inactive) in the test with EKVX; 15.9 µM (inactive) in the test on A549; 16.3 µM (inactive) in the test with DU-145; 9.02 µM (inactive) in the test with NCI/ADR-RES; 3.76 µM (inactive) in the test with HCC 2998. Besides, the GI50 in the test with HCT-116 was 7.85 µM (inactive); in the test on SR it was 2.92 µM (inactive); in the test with SF-295 it was 17 µM (inactive); with RPMI-8226, 2.97 µM (inactive); in the test on COLO 205, 2.04 µM (inactive); in the test on NCI-H460, 17.8 µM (inactive). The GI50 with SW-620 is 2.52 µM (inactive); in the test with LOX IMVI it was 5.3 µM (inactive); in the test on HCT-15, 4.34 µM; in the test on SK-OV-3 it was 15.7 µM (inactive); in the test with MCF7, 8.85 µM (inactive); in the test with NCI-H23, 18.1 µM (inactive). Moreover, the results for the GI50 with ACHN and with 786-0 were 7.26 µM (inactive) and 3.34 µM (inactive), respectively.
As to `O=C(/C=C/C(=O)N1CCCC1)N1CCCC1`, the GI50 in the test with SF-268, in the test on EKVX, with A549, in the test on DU-145, with NCI/ADR-RES and in the test with HCC 2998 was > 100 µM (inactive) throughout. For the same compound, the GI50 with HCT-116, with SR, with SF-295, with RPMI-8226, with COLO 205 and in the test on NCI-H460 was > 100 µM (inactive) in each case. In addition, the GI50 in the test on SW-620 was > 100 µM (inactive); with LOX IMVI, > 100 µM (inactive); with HCT-15, above 100 µM; in the test with SK-OV-3, > 100 µM (inactive); in the test with MCF7 it was > 100 µM (inactive); with NCI-H23, > 100 µM (inactive). Further, the GI50 in the test on ACHN and in the test with 786-0 was > 100 µM (inactive) throughout.
Consider `CC(C)NC(=O)OCc1c(COC(=O)NC(C)C)n(C)c2c1ccc1ccsc12`, for which the GI50 with SF-268 is 4.38 µM (inactive); with EKVX, 17.5 µM (inactive); with A549, 9.98 µM (inactive); in the test on DU-145, 4.76 µM (inactive); in the test on NCI/ADR-RES it was 6.75 µM (inactive); with HCC 2998 it was 14.4 µM (inactive). In addition, the GI50 with HCT-116 is 9.84 µM (inactive); in the test on SR, 2.37 µM (inactive); in the test on SF-295, 7.62 µM (inactive); with RPMI-8226 it was 2.94 µM (inactive); in the test with COLO 205 it was 12.9 µM (inactive); with NCI-H460 it was 3.24 µM (inactive). Also, the GI50 in the test on SW-620 was 5.19 µM (inactive); with LOX IMVI, 5.57 µM (inactive); with HCT-15, 9.25 µM; with SK-OV-3 it was 16.2 µM (inactive); in the test on MCF7 it was 5.16 µM (inactive); with NCI-H23 it was 5.28 µM (inactive). For the same compound, the GI50 in the test with ACHN is 3.05 µM (inactive); in the test on 786-0 it was 6.46 µM (inactive).
As to `CCCCC(C)(C/C=C/[C@@H]1[C@@H](C(O)CCCCCC(=O)OC)C(=O)C[C@H]1O[Si](C)(C)C(C)(C)C)O[Si](C)(C)C` (stereo not given in full), the GI50 in the test with SF-268 is 39.1 µM (inactive); in the test with EKVX, > 100 µM (inactive); in the test on A549 it was 70.8 µM (inactive); in the test on DU-145, > 100 µM (inactive); with NCI/ADR-RES, > 100 µM (inactive); in the test on HCC 2998, > 100 µM (inactive). In addition, the GI50 is 81.1 µM (inactive) in the test with HCT-116; 25.3 µM (inactive) in the test with SR; > 100 µM (inactive) with SF-295; 31.2 µM (inactive) in the test on RPMI-8226; > 100 µM (inactive) in the test on COLO 205; 83.4 µM (inactive) with NCI-H460. The GI50 with SW-620 was 59.3 µM (inactive); with LOX IMVI it was 45.3 µM (inactive); with HCT-15 it was 76.2 µM; in the test with SK-OV-3 it was > 100 µM (inactive); in the test with MCF7, 42 µM (inactive); in the test on NCI-H23, > 100 µM (inactive). The GI50 in the test with ACHN is 86.5 µM (inactive); with 786-0 it was > 100 µM (inactive).
Turning to `Cc1cc(C)n(CC(Cn2nc(C)cc2C)=C(/C(Cl)=C(/Cl)Nc2ccc([N+](=O)[O-])cc2)[N+](=O)[O-])n1`, the GI50 was 5.01 µM (inactive) with SF-268; 3.85 µM (inactive) in the test with EKVX; 3.43 µM (inactive) in the test with A549; 4.03 µM (inactive) in the test with DU-145; 8.07 µM (inactive) with NCI/ADR-RES; 3.52 µM (inactive) in the test with HCC 2998. The GI50 was 3.7 µM (inactive) in the test with HCT-116; 2.48 µM (inactive) with SR; 5.87 µM (inactive) with SF-295; 1.93 µM (inactive) with RPMI-8226; 2.67 µM (inactive) in the test with COLO 205; 3.33 µM (inactive) in the test on NCI-H460. Besides, the GI50 was 2.42 µM (inactive) in the test on SW-620; 2.3 µM (inactive) in the test with LOX IMVI; 4.73 µM in the test with HCT-15; 3.37 µM (inactive) in the test with SK-OV-3; 3.71 µM (inactive) with MCF7; 2.43 µM (inactive) in the test on NCI-H23. The results for the GI50 in the test on ACHN and in the test on 786-0 were 3.25 µM (inactive) and 5.06 µM (inactive), respectively.
On to `COC(=O)[C@]12CCC(C)(C)C[C@H]1C1=CC[C@@H]3[C@@]4(C)CC[C@H](OC5OC(CO)C(O)C(O)C5OC5OC(CO)C(O)C(O)C5O)C(C)(C)[C@@H]4CC[C@@]3(C)[C@]1(C)CC2` (stereo not given in full), for which the GI50 is 13.7 µM (inactive) with SF-268; 11.9 µM (inactive) with EKVX; 8.83 µM (inactive) with A549; 12 µM (inactive) in the test with DU-145; 14.5 µM (inactive) with NCI/ADR-RES; 14.8 µM (inactive) with HCC 2998. Moreover, the GI50 in the test on HCT-116 was 5.41 µM (inactive); in the test on SR it was 7.85 µM (inactive); in the test on SF-295, 14.2 µM (inactive); with RPMI-8226, 19.3 µM (inactive); in the test with COLO 205 it was 3.09 µM (inactive); with NCI-H460, 14.5 µM (inactive). Besides, the GI50 in the test with SW-620 was 14.2 µM (inactive); in the test on LOX IMVI, 6.15 µM (inactive); in the test with HCT-15, 12.5 µM; in the test on SK-OV-3 it was 20.5 µM (inactive); in the test with MCF7 it was 12 µM (inactive); with NCI-H23, 7.08 µM (inactive). Moreover, the values for the GI50 in the test on ACHN and in the test on 786-0 were 7.55 µM (inactive) and 11.2 µM (inactive), respectively.
As to `Cc1cc2nc(O)c(C(C)C(=O)c3ccc(Cl)cc3)nc2cc1C` (stereo not given), the GI50 is 47.5 µM (inactive) with SF-268; 14.2 µM (inactive) in the test with EKVX; 39.8 µM (inactive) with A549; 53.1 µM (inactive) in the test with DU-145; 28.6 µM (inactive) in the test on NCI/ADR-RES; 13.5 µM (inactive) in the test with HCC 2998. In addition, the GI50 was 33.6 µM (inactive) with HCT-116; 22.2 µM (inactive) in the test with SR; 31.7 µM (inactive) in the test with SF-295; 43.2 µM (inactive) with RPMI-8226; 22 µM (inactive) in the test with COLO 205; 29.9 µM (inactive) in the test on NCI-H460. Also, the GI50 with SW-620 was 28.8 µM (inactive); in the test with LOX IMVI, 35.6 µM (inactive); in the test with HCT-15, 44.7 µM; in the test on SK-OV-3, > 100 µM (inactive); with MCF7, 27.5 µM (inactive); in the test on NCI-H23 it was 46.3 µM (inactive). The GI50 in the test with ACHN is 54.1 µM (inactive); with 786-0, 27.6 µM (inactive).
